# Data published in patent publication US20230241098A1, “ANTIVIRAL PHARMACEUTICAL COMPOSITION” (priority 2020, published 2023).
# Where “and” joins values, the source holds several entries; their conditions need not be identical. Equal entries are not always repeated. Where two headings read alike, the source gives them in different places.
# How the values were obtained:
# Interleukin 8 (IL-8) = experiment: Interleukin 8 release into basal medium (ELISA); type: cell-based, human
# [1] = test system: MucilAir nasal human 3D Epithelial model; experiment: Mucociliary clearance (MCC), bead velocity; type: cell-based; settings: Example 4; day 4; once or twice daily; ribavirin basal
# [2] = test system: MucilAir nasal human 3D Epithelial model
# [3] = test system: respiratory syncytial virus A; type: cell-based; settings: RSV A
# HRV-C15 = experiment: Viral genome copy number (quantitative RT-PCR of apical washes) in HRV-C15-infected MucilAir nasal epithelia (Examples 1 and 3); type: cell-based, human rhinovirus; settings: for effect on RV-C15 replication (in words): rupintrivir basal, comparison of fucoidan sources
# [4] = test system: MucilAir nasal human 3D Epithelial model; experiment: Cilia beating frequency (CBF); type: cell-based; settings: Example 4; day 4; once or twice daily; ribavirin basal
# RANTES = RANTES release into basal medium (ELISA); type: cell-based, human
# [5] = test system: MucilAir nasal human 3D Epithelial model; settings: Examples 2 and 4 (RSV A experiments); all measured timepoints
# HRV-B14 = experiment: Viral genome copy number (quantitative RT-PCR of apical washes) in HRV-B14-infected MucilAir nasal epithelia (Example 6); type: cell-based, human rhinovirus; settings: for Mean Log 10 ((Copies/ml) + 1), viral genome copy number: 5 μM, positive antiviral control
# HRV-A16 = experiment: Viral genome copy number (quantitative RT-PCR of apical washes) in HRV-A16-infected MucilAir nasal epithelia (Example 5); type: cell-based, human rhinovirus; settings: twice daily apical, rupintrivir 5 μM basal
# [6] = Example 4, once or twice daily (25 μg Test UP: see once daily exception), ribavirin basal
compound,measurement,setting,value
"NC(=O)c1ncn([C@@H]2O[C@H](CO)[C@@H](O)[C@H]2O)n1 [Ribavirin, ribavirin]",effect on RSV A induced IL-8 release (in words),Interleukin 8 (IL-8); [6],prevented the RSV A induced IL-8 release
same,effect on RSV A induced MCC reduction (in words),[1],attenuated this RSV A induced MCC reduction
same,TEER of inoculated inserts (in words),"[2]; Example 4, RSV A-inoculated inserts, once or twice daily, ribavirin basal",TEER values similar to that of the mock inserts
same,Mean viral genome copy number,"[3]; Example 2, 3.5 hours post infection, AP apical / BL basal as in label, ribavirin 100 uM basal, 0.00 = below detection limit",5.63 Log 10 ((Copies/ml) + 1) and 3.52 Log 10 ((Copies/ml) + 1)
same,Mean viral genome copy number,"[3]; Example 2, 24 hours post infection, AP apical / BL basal as in label, ribavirin 100 uM basal, 0.00 = below detection limit",6.48 Log 10 ((Copies/ml) + 1) and 10.22 Log 10 ((Copies/ml) + 1)
same,Mean viral genome copy number,"[3]; Example 2, 48 hours post infection, AP apical / BL basal as in label, ribavirin 100 uM basal",7.07 Log 10 ((Copies/ml) + 1) and 11.46 Log 10 ((Copies/ml) + 1)
same,Mean viral genome copy number,"[3]; Example 2, 72 hours post infection, AP apical / BL basal as in label, ribavirin 100 uM basal",7.78 Log 10 ((Copies/ml) + 1) and 10.33 Log 10 ((Copies/ml) + 1)
same,Mean viral genome copy number,"[3]; Example 2, 96 hours post infection, AP apical / BL basal as in label, ribavirin 100 uM basal",8.32 Log 10 ((Copies/ml) + 1) and 9.09 Log 10 ((Copies/ml) + 1)
same,decrease of the viral load,"[3]; Example 2, ribavirin 100 μM basal",3 logs
same,Mean viral genome copy number,"[3]; Example 4, 3.5 hours post infection, first block of Table 12, 1x (once daily apical), ribavirin 100 μM basal",6.76 Log 10 ((Copies/ml) + 1)
same,Mean viral genome copy number,"[3]; Example 4, 3.5 hours post infection, second block of Table 12, head prints 1x, ribavirin 100 μM basal",6.76 Log 10 ((Copies/ml) + 1)
same,Mean viral genome copy number,"[3]; Example 4, 24 hours post infection, first block of Table 12, 1x (once daily apical), ribavirin 100 μM basal",7.06 Log 10 ((Copies/ml) + 1)
same,Mean viral genome copy number,"[3]; Example 4, 24 hours post infection, second block of Table 12, head prints 1x, ribavirin 100 μM basal",7.06 Log 10 ((Copies/ml) + 1)
same,Mean viral genome copy number,"[3]; Example 4, 48 hours post infection, first block of Table 12, 1x (once daily apical), ribavirin 100 μM basal",6.79 Log 10 ((Copies/ml) + 1)
same,Mean viral genome copy number,"[3]; Example 4, 48 hours post infection, second block of Table 12, head prints 1x, ribavirin 100 μM basal",6.79 Log 10 ((Copies/ml) + 1)
same,Mean viral genome copy number,"[3]; Example 4, 72 hours post infection, first block of Table 12, 1x (once daily apical), ribavirin 100 μM basal",7.40 Log 10 ((Copies/ml) + 1)
same,Mean viral genome copy number,"[3]; Example 4, 72 hours post infection, second block of Table 12, head prints 1x, ribavirin 100 μM basal",7.40 Log 10 ((Copies/ml) + 1)
same,Mean viral genome copy number,"[3]; Example 4, 96 hours post infection, first block of Table 12, 1x (once daily apical), ribavirin 100 μM basal",8.89 Log 10 ((Copies/ml) + 1)
same,Mean viral genome copy number,"[3]; Example 4, 96 hours post infection, second block of Table 12, head prints 1x, ribavirin 100 μM basal",8.89 Log 10 ((Copies/ml) + 1)
same,Mean viral genome copy number,"HRV-C15; Example 3, HRV-C15, 3.5 hours post infection, 1x (once daily apical), positive control basal, 0.00 = below detection limit",0.00 Log 10 ((Copies/ml) + 1)
same,Mean viral genome copy number,"HRV-C15; Example 3, HRV-C15, 3.5 hours post infection, 2x (twice daily apical), positive control basal, 0.00 = below detection limit",0.00 Log 10 ((Copies/ml) + 1)
same,Mean viral genome copy number,"HRV-C15; Example 3, HRV-C15, 24 hours post infection, 1x (once daily apical), positive control basal",5.14 Log 10 ((Copies/ml) + 1)
same,Mean viral genome copy number,"HRV-C15; Example 3, HRV-C15, 24 hours post infection, 2x (twice daily apical), positive control basal",5.14 Log 10 ((Copies/ml) + 1)
same,Mean viral genome copy number,"HRV-C15; Example 3, HRV-C15, 48 hours post infection, 1x (once daily apical), positive control basal",7.63 Log 10 ((Copies/ml) + 1)
same,Mean viral genome copy number,"HRV-C15; Example 3, HRV-C15, 48 hours post infection, 2x (twice daily apical), positive control basal",7.63 Log 10 ((Copies/ml) + 1)
same,Mean viral genome copy number,"HRV-C15; Example 3, HRV-C15, 72 hours post infection, 1x (once daily apical), positive control basal",6.89 Log 10 ((Copies/ml) + 1)
same,Mean viral genome copy number,"HRV-C15; Example 3, HRV-C15, 72 hours post infection, 2x (twice daily apical), positive control basal",6.89 Log 10 ((Copies/ml) + 1)
same,Mean viral genome copy number,"HRV-C15; Example 3, HRV-C15, 96 hours post infection, 1x (once daily apical), positive control basal",6.24 Log 10 ((Copies/ml) + 1)
same,Mean viral genome copy number,"HRV-C15; Example 3, HRV-C15, 96 hours post infection, 2x (twice daily apical), positive control basal",6.24 Log 10 ((Copies/ml) + 1)
same,effect on RSV A induced cilia impairment (in words),[4],prevented
same,effect on RSV A-induced RANTES release (in words),RANTES; [6],effectively prevented the virus-induced increase of RANTES release
CCOC(=O)/C=C/[C@H](C[C@@H]1CCNC1=O)NC(=O)[C@@H](CC(=O)[C@@H](NC(=O)c1cc(C)on1)C(C)C)Cc1ccc(F)cc1 [Rupintrivir],effect on RV-C15 induced IL-8 release (in words),"Interleukin 8 (IL-8); Example 1, HRV-C15-inoculated inserts, day 4 post infection",prevented
same,effect on RSV A induced IL-8 release (in words),"Interleukin 8 (IL-8); Example 2, RSV A-inoculated inserts, day 2 and day 4 as stated",prevented
same,"cytotoxicity (LDH, Triton X-100 = 100%)",[5],below 5%
same,"Mean Log 10 ((Copies/ml) + 1), viral genome copy number",HRV-B14; time 3.5 h,0.00 Log 10 ((Copies/ml) + 1)
same,"Mean Log 10 ((Copies/ml) + 1), viral genome copy number",HRV-B14; time 24 h,3.65 Log 10 ((Copies/ml) + 1)
same,"Mean Log 10 ((Copies/ml) + 1), viral genome copy number",HRV-B14; time 48 h,4.23 Log 10 ((Copies/ml) + 1)
same,"Mean Log 10 ((Copies/ml) + 1), viral genome copy number",HRV-B14; time 72 h,4.26 Log 10 ((Copies/ml) + 1)
same,"Mean Log 10 ((Copies/ml) + 1), viral genome copy number",HRV-B14; time 96 h,0.00 Log 10 ((Copies/ml) + 1)
same,detection of virus (in words),"HRV-B14; RV-B14, Day 4",no more virus was detected
same,effect on HRV-C15 induced transient TEER decrease (in words),"[2]; Example 1, HRV-C15-inoculated inserts, apical or basal as in label",prevented this transient TEER decrease
same,TEER of inoculated inserts,"[2]; Example 3, HRV-C15-inoculated inserts",above 100 Ω·cm^2
same,Mean viral genome copy number,"HRV-C15; Example 1, HRV-C15, 3.5 hours post infection, AP apical / BL basal as in label, rupintrivir 5 μM basal, 0.00 = below detection limit",0.00 Log 10 ((Copies/ml) + 1)
same,Mean viral genome copy number,"HRV-C15; Example 1, HRV-C15, 24 hours post infection, AP apical / BL basal as in label, rupintrivir 5 μM basal, 0.00 = below detection limit",5.57 Log 10 ((Copies/ml) + 1)
same,Mean viral genome copy number,"HRV-C15; Example 1, HRV-C15, 48 hours post infection, AP apical / BL basal as in label, rupintrivir 5 μM basal",6.46 Log 10 ((Copies/ml) + 1)
same,Mean viral genome copy number,"HRV-C15; Example 1, HRV-C15, 72 hours post infection, AP apical / BL basal as in label, rupintrivir 5 μM basal",6.69 Log 10 ((Copies/ml) + 1)
same,Mean viral genome copy number,"HRV-C15; Example 1, HRV-C15, 96 hours post infection, AP apical / BL basal as in label, rupintrivir 5 μM basal",7.17 Log 10 ((Copies/ml) + 1)
same,decrease of the viral load,"HRV-C15; Example 1, HRV-C15, rupintrivir 5 μM basal, on average",two
same,effect on RV-C15 replication (in words),HRV-C15; Example 3,most effective inhibitor of RV-C15 replication
same,effect on RV-C15 replication (in words),"HRV-C15; Example 3, listed as rupintrivir",significantly reduced viral genome copy number
same,Mean viral genome copy number,"HRV-A16; 3.5 hours post infection, 0.00 = below detection limit",0.00 Log 10 ((Copies/ml) + 1)
same,Mean viral genome copy number,"HRV-A16; 24 hours post infection, 0.00 = below detection limit",0.00 Log 10 ((Copies/ml) + 1)
same,Mean viral genome copy number,"HRV-A16; 48 hours post infection, 0.00 = below detection limit",4.70 Log 10 ((Copies/ml) + 1)
same,Mean viral genome copy number,"HRV-A16; 72 hours post infection, 0.00 = below detection limit",5.30 Log 10 ((Copies/ml) + 1)
same,Mean viral genome copy number,HRV-A16; 96 hours post infection,3.77 Log 10 ((Copies/ml) + 1)
same,effect on virus-induced increase of RANTES release (in words),"RANTES; Example 3, RV-C15, rupintrivir basal",effectively prevented the virus-induced increase of RANTES release
Polyethylene glycol tert-octyl phenyl ether [Triton X-100],TEER,"[2]; positive control for cytotoxicity, 10% (v/v) in normal saline, 50 μl apically, Examples 1 to 4",below 100 Ω·cm^2
